From the RepoRT retention time repository (doi:10.1021/acs.analchem.2c02893)

assay: RP, Thermo Scientific Acclaim RSLC 120 C18, 100 × 2.1 mm, 2.2 µm, 30 °C, 0.2 mL/min, estimated dead time 1.1 min; A: 90% water + 10% methanol + 0.01% formic acid + 5 mM ammonium formate, pH 3.61; B: methanol + 0.01% formic acid + 5 mM ammonium formate, pH 3.61; gradient (min/%B) 0/1 1/1 2/39 13/99.9 15/99.9 15.1/1 20.1/1; conditions: stereoisomer not certain

Row | LC retention time | Compound
1 | 4.34 min | CC(O)Cn1cnc2c1c(=O)n(C)c(=O)n2C (stereo unspecified) [Proxyphylline]
2 | 7.08 min | O=C1NC(=O)C(c2ccccc2)(c2ccccc2)N1 [Phenytoin]
3 | 4.14 min | O=C1CN(N=Cc2ccc([N+](=O)[O-])o2)C(=O)N1 [Nitrofurantoin]
4 | 6.28 min | CC(=O)Oc1c(C)cc(OCC(O)CNC(C)C)c(C)c1C (stereo unspecified) [Metipranolol]
5 | 8.69 min | CC1(C)OC2CC3C4CCC5=CC(=O)C=CC5(C)C4(F)C(O)CC3(C)C2(C(=O)CO)O1 (stereo unspecified) [Triamcinolone acetonide]
6 | 3.11 min | CC(C)(C)NCC(O)c1cc(O)cc(O)c1 (stereo unspecified) [Terbutaline]
7 | 2.96 min | CNC(=C[N+](=O)[O-])NCCSCc1csc(CN(C)C)n1 [Nizatidine]
8 | 4.37 min | O=C1NC(=O)C2CC=CCC12 (stereo not drawn) [Tetrahydrophthalimide (cis-) (1.2.3.6-)]
9 | 10.4 min | CC(C)C1CCC(C(=O)NC(Cc2ccccc2)C(=O)O)CC1 (stereo unspecified) [Nateglinide]
10 | 4.89 min | CCc1c(C)[nH]c2c1C(=O)C(CN1CCOCC1)CC2 (stereo unspecified) [Molindone]
11 | 7.94 min | O=C1C(CCS(=O)c2ccccc2)C(=O)N(c2ccccc2)N1c1ccccc1 (stereo unspecified) [Sulfinpyrazone]
12 | 5.81 min | Nc1ccc(S(=O)(=O)Nc2cnc3ccccc3n2)cc1 [Sulfaquinoxaline]
13 | 7.71 min | C=CC1(C)CC(OC(=O)CSCCN(CC)CC)C2(C)C(C)CCC3(CCC(=O)C32)C(C)C1O (stereo unspecified) [Tiamulin]
14 | 4.66 min | Cc1cccc(C)c1NC(=O)C1CCCCN1C (stereo unspecified) [Mepivacaine]
15 | 6.64 min | CSc1ccc2c(c1)N(CCC1CCCCN1C)c1ccccc1S2=O (stereo unspecified) [Thioridazine-5-sulfoxide]
16 | 3.61 min | CN(C)CCc1c[nH]c2ccc(CC3COC(=O)N3)cc12 (stereo unspecified) [Zolmitriptan]
17 | 4.36 min | CCN(CC)CCNC(=O)c1cc(Cl)c(N)cc1OC [Metoclopramide]
18 | 10.9 min | CC(=O)OC1(C(C)=O)CCC2C3C=C(C)C4=CC(=O)CCC4(C)C3CCC21C (stereo unspecified) [Megestrol-17-acetate]
19 | 7.52 min | COCCCOc1ccnc(CS(=O)c2nc3ccccc3[nH]2)c1C (stereo unspecified) [Rabeprazole]
20 | 4.44 min | Cc1cc2c(OCC(O)CNC(C)C)cccc2[nH]1 (stereo unspecified) [Mepindolol]

More lines, now with the values behind:

Row | Compound | LC retention time
21 | CC(C)C1(C)N=C(c2ncccc2C(=O)O)NC1=O (stereo unspecified) [Imazapyr] | 4.1 min
22 | CC(C)(C)c1ccc(CCOc2ncnc3ccccc23)cc1 [Fenazaquin] | 13.7 min
23 | COP(=S)(OC)Oc1ccc([N+](=O)[O-])c(Cl)c1 [Chlorthion] | 10.2 min
24 | COc1ccc2c3c([nH]c2c1)C(C)=NCC3 [Harmaline] | 5.06 min
25 | CC(=O)Nc1c(I)c(NC(C)=O)c(I)c(C(=O)O)c1I [Diatrizoate (Amidotrizoate acid)] | 2.79 min
26 | CCc1cccc(CC)c1N(COC)C(=O)CS(=O)(=O)O [Alachlor-ESA] | 7.19 min
27 | CC(C)C1(NC(=O)C2CC3c4cccc5[nH]cc(c45)CC3N(C)C2)OC2(O)C3CCCN3C(=O)C(Cc3ccccc3)N2C1=O (stereo unspecified) [Ergocristine-Dihydro] | 8.17 min
28 | CC(C)CC(CN)CC(=O)O (stereo unspecified) [Pregabalin] | 3.88 min
29 | C=C1CC(=CC)C(=O)OC2CC[N+]3([O-])CC=C(COC(=O)C1(C)O)C23 (stereo unspecified) [Seneciphylline-N-oxide] | 4.5 min
30 | CC(C)(COCc1cccc(Oc2ccccc2)c1)c1ccc(OC(F)(F)Br)cc1 [Halfenprox] | 14.3 min
31 | CCCCOC(=O)N(C)SN(C)C(=O)Oc1cccc2c1OC(C)(C)C2 [Furathiocarb] | 12.1 min
32 | O=c1oc2ccccc2c(O)c1C1CC(c2ccc(OCc3ccc(C(F)(F)F)cc3)cc2)Cc2ccccc21 (stereo unspecified) [Flocoumafen] | 12.4 min
33 | O=C(Nc1cccc(Cl)c1)OCC#CCCl [Barban] | 9.74 min
34 | CC(C)C(NC(=O)c1nn(CC2CCCCC2)c2ccccc12)C(N)=O (stereo unspecified) [AB-CHMINACA] | 11.3 min
35 | CC(C)CN(CC(O)C(Cc1ccccc1)NC(=O)OC1COC2OCCC12)S(=O)(=O)c1ccc(N)cc1 (stereo unspecified) [Darunavir] | 8.21 min
36 | CN1CCC(=C2c3ccccc3C=Cc3ccccc32)CC1 [Cyproheptadine] | 7.89 min
37 | Cc1onc(-c2c(Cl)cccc2Cl)c1C(=O)NC1C(=O)N2C1SC(C)(C)C2C(=O)O (stereo unspecified) [Dicloxacillin] | 7.8 min
38 | CC(C(=O)c1ccc2c(c1)OCO2)N1CCCC1 (stereo unspecified) [MDPPP (3-4-Methylenedioxy-a-pyrrolidinopropiophenone)] | 4.13 min
39 | CC(C)OC(=O)Nc1ccccc1 [Propham] | 8.11 min
40 | CC(=NC#N)N(C)Cc1ccc(Cl)nc1 [Acetamiprid] | 5.17 min
41 | CC(C)N(CCC(C(N)=O)(c1ccccc1)c1ccccn1)C(C)C (stereo unspecified) [Disopyramide] | 4.74 min

Row | Compound | LC retention time
42 | CCC(=O)OC(OP(=O)(CCCCc1ccccc1)CC(=O)N1CC(C2CCCCC2)CC1C(=O)O)C(C)C (stereo unspecified) [Fosinopril] | 12.4 min
43 | CN1CCCCC1Cn1cc(C(=O)c2cccc3ccccc23)c2ccccc21 (stereo unspecified) [AM-1220] | 8.09 min
44 | CCCCCCCCCCCCCCCC[N+](C)(C)Cc1ccccc1 [Benzyldimethylhexadecylammonium] | 13.1 min
45 | CC(=O)OC1(C(C)=O)CCC2C3CC(C)C4=CC(=O)CCC4(C)C3CCC21C (stereo unspecified) [Medroxyprogesteroneacetate] | 11 min
46 | N#CN=C1SCCN1Cc1ccc(Cl)nc1 [Thiacloprid] | 5.62 min
47 | CC(=O)CC(c1ccc(Cl)cc1)c1c(O)c2ccccc2oc1=O (stereo unspecified) [Coumachlor] | 10.2 min
48 | CCOP(=S)(OCC)Oc1nc(Cl)c(Cl)cc1Cl [Chlorpyriphos] | 12.7 min
49 | COCCN(C(=O)CCl)c1c(C)cccc1C [Dimethachlor] | 8.58 min
50 | CCCCCn1cc(C(=O)c2cccc3ccccc23)c2ccc(OC)cc21 [JWH-018-6-Methoxy-Ind] | 12.4 min
51 | CNC(C)C(=O)c1cccc(F)c1 (stereo unspecified) [Methcathinone (3-F-)] | 3.94 min
52 | CCCCc1c(C)nc(NCC)[nH]c1=O [Ethirimol] | 8 min
53 | CC12CCC(=O)C=C1CCC1C2C(O)CC2(C=O)C(C(=O)CO)CCC12 (stereo unspecified) [Aldosterone] | 7.78 min
54 | O=C1CC2OCC=C3CN4CCC56c7ccccc7N1C5C2C3CC46 (stereo unspecified) [Strychnine] | 4.16 min
55 | C=CCN(CC=C)C(=O)CCl [Allidochlor] | 6.37 min
56 | CCOc1ccc2c(c1)C(C)=CC(C)(C)N2 [Ethoxyquin] | 10.1 min
57 | CCOC1Oc2ccc(OS(C)(=O)=O)cc2C1(C)C (stereo unspecified) [Ethofumesate] | 9.14 min
58 | O=C(NC(=O)c1c(F)cccc1F)Nc1ccc(OC(F)(F)C(F)OC(F)(F)F)c(Cl)c1 (stereo unspecified) [Novaluron] | 11.9 min
59 | CCCCc1c(C)nc(N(C)C)[nH]c1=O [Dimethirimol] | 7.7 min
60 | CCOC(=O)C1=NN(c2ccc(Cl)cc2Cl)C(C)(C(=O)OCC)C1 (stereo unspecified) [Mefenpyr-diethyl] | 11.1 min
61 | c1ccc(C2CN3CCSC3=N2)cc1 (stereo unspecified) [Levamisol] | 3.68 min
